Source: patent US9902681B2, “N-3 immunoresolvents: structures and actions” (THE BRIGHAM AND WOMEN'S HOSPITAL, INC., priority 2013, dated 2018)

Assays:
neutrophil recruitment = experiment: Zymosan peritonitis, neutrophil recruitment into the peritoneum; parameters: species or system mouse; settings: administered in vivo (as mixtures, FIG. 5); result in words
Description: FIG. 5. n-3 DPA immunoresolvents display potent anti-inflammatory actions in vivo. The indicated n-3 DPA-derived product mixtures were administered by intravenous injection 10 min prior to the intraperitoneal administration of zymosan (0.1 mg, 500 μl PBS) to 6-8-week-old male FvB mice. At 4 h, peritoneal exudates were collected and the (a) number of infiltrated neutrophils was assessed by light microscopy and flow cytometry. Exudate levels for the pro-inflammatory mediators (b) IL6 and (c) MCP-1 were determined by cytokine array. The ratio of RvD1n-3 DPA to RvD2n-3 DPA was ˜3:1 (A), the ratio of MaR1n-3 DPA to MaR2n-3 DPA was ˜4:1 (B); the ratio of RvD5n-3 DPA to PD1n-3 DPA was ˜9:1 (C). Results are mean±SEM. n=4 mice per group (*P<0.05; vs. vehicle group). Results are mean±SEM. n=4. *P<0.05, **P<0.01 vs. zymosan mice.
It was then determined whether these novel structures carried bioactivity.
Zymosan (0.1 mg) was injected intraperitoneally (i.p.) in 1 ml of sterile saline. Exudates were collected at 0, 4, 12 and 24 h post zymosan. Leukocyte numbers and differential counts in the peritoneal exudates were determined as in^16. In designated experiments, mice were administered intravenously (i.v): Vehicle (saline containing 0.1% EtOH), or the indicated mixture of n-3 DPA-derived products at 100 ng/mouse 5 min prior to i.p. zymosan administration (0.1 mg). After 4 h the exudates were collected and the number of extravasated neutrophils determined using Turks solution and flow cytometry as above.

[1] = system: infiltrated leukocytes into the lungs / lung tissue damage; experiment: Murine hind limb ischemia reperfusion, second organ (lung) injury: histology and lung MPO; type: in vivo, mouse; settings: i.v. 10 min prior to reperfusion; RvD1 500 ng (FIG. 1) or 0.5 ng (Methods); result in words
Description: (a) Structures of DHA and n-3 DPA. (b) Ischemia was induced by applying tourniquets to the hind limb of 6-8-week-old male FvB mice. After 1 h, tourniquets were removed and reperfusion ensued for 3 h. 10 min prior to reperfusion, vehicle (saline containing 0.1% EtOH), RvD1 (500 ng) or a mixture of n-3 DPA-derived products (see Methods for details) were administered intravenously. At the end of reperfusion, lungs were collected; (c) tissue histology by H&E staining (×200) and (d) MPO levels were assessed. (e) Blood was collected, incubated with rat anti-mouse Ly6G and rat anti-mouse CD41 antibodies and neutrophil leukocyte aggregates were assessed by flow cytometry. (f) Plasma prostanoid and (g) leukotriene levels were assessed by lipid mediator metabololipidomics. Results are mean±SEM. n=4 mice per group. (*P<0.05; vs. vehicle group). Results c are representative n=4. Results d-e are mean±SEM. n=4. *P<0.05, **P<0.01 vs. vehicle mice. […]
Mice were anesthetized by intraperitoneal injection of a mixture of […]. […] The frozen lungs were homogenized from individual mice, centrifuged and the tissue myeloperoxidase (MPO) levels were determined using a mouse MPO ELISA (R&D Systems.).

[2] = system: human neutrophils adhering to TNF-α activated endothelial cells (HUVEC); experiment: Human neutrophil-endothelial cell adhesion; type: cell-based; settings: 1 nM, 15 min, 37° C.; HUVEC stimulated with TNF-α 10 ng/ml, 4 h; vs vehicle
Description: (§1) FIG. 7. Reduction in human neutrophil chemotaxis, neutrophil-endothelia cell adhesion and stimulation of macrophage phagocytosis by n-3 DPA-derived immunoresolvents. (a) Left panel: micrographs depict PKH26-labeled neutrophils adherent to WGA-Alexafluor® 488-labeled HUVEC stimulated with TNF-α (10 ng/ml, 4 h, 37° C., 0.1% FCS) with or without n-3 DPA resolvins (1 nM, 15 min, 37° C., pH7.45; ×40 magnification). Right panel: Fluorescently labeled human neutrophils were incubated with vehicle (0.1% EtOH in PBS) or n-3 DPA products. These were then added to TNF-α-stimulated HUVEC and incubated for 30 min (37° C.), non-adherent cells were washed and extent of neutrophil adhesion assessed using a SpectraMax M3 Plate reader. (b) Neutrophils were incubated with vehicle (0.1% EtOH in PBS) or n-3 DPA products (1 nM, 15 min, 37° C., pH7.45) prior to loading on ChemoTx chambers and assessing chemotaxis towards IL-8 (100 ng/ml, 90 min, 37° C., pH7.45). […] After 60 min (37° C., pH7.45), the incubation was stopped, extracellular fluorescence quenched using trypan blue and phagocytosis assessed using a SpectraMax M3 Plate reader. […]
HUVEC were purchased from Lonza and cultured to passage 4. […] The plates were then washed with DPBS to remove non-adherent cells and the number of adherent neutrophils assessed using a Spectra Max M3 microplate reader.

human neutrophils = experiment: Neutrophil chemotaxis towards IL-8 (ChemoTx); type: cell-based; settings: 1 nM, 15 min, 37° C.; IL-8 100 ng/ml, 90 min
Description: as §1, with “reader.” for “reader. (b) Neutrophils were incubated with vehicle (0.1% EtOH in PBS) or n-3 DPA products (1 nM, 15 min, 37° C., pH7.45) prior to loading on ChemoTx chambers and assessing chemotaxis towards IL-8 (100 ng/ml, 90 min, 37° C., pH7.45).”
Peripheral blood neutrophils were obtained from healthy volunteers as in^17. […] 2.5×10^4 cells were then added to the upper chamber of the ChemoTx System (3 μm pore size filter) and chemotaxis towards IL8 (100 ng/ml) was assessed (90 min, 37° C., 5% CO2). The number of cells migrated into the bottom chamber was determined using Alama Blue following manufacturer's instructions on a Spectra Max M3 microplate reader (Molecular Devices Inc., Sunnyvale, Calif.).

[3] = system: human monocyte-derived macrophages; experiment: Macrophage phagocytosis of fluorescently labeled zymosan; type: cell-based; settings: 1 nM, 15 min, 37° C.; then labeled zymosan 60 min
Description: as §1
Macrophages were prepared and phagocytosis was assessed as in^16. […] Phagocytosis was assessed using an M3 SpectraMax plate reader.

Row | Compound | neutrophil infiltration in murine peritonitis (neutrophil recruitment) | also measured
1 | CC/C=C\C/C=C\CC(O)C=CC=CC=CC(O)CCCCCC(=O)O (stereo not shown) [MaR1n-3 DPA, 7,14-dihydroxy-8,10,12,16Z,19Z-docosapentaenoic acid] | reduced neutrophil infiltration | 
2 | CC/C=C\C/C=C\CC(O)C(O)C=CC=C/C=C\CCCCCC(=O)O (stereo not shown) [MaR2n-3 DPA, 13,14-dihydroxy-7Z,9,11,16Z,19Z-docosapentaenoic acid] | reduced neutrophil infiltration | 
3 | CC/C=C\CC(O)C=CC=CC=CC(O)C/C=C\CCCCCC(=O)O (stereo not shown) [PD1n-3 DPA, 10,17-dihydroxy-7Z,11,13,15,19Z-docosapentaenoic acid] | reduced neutrophil infiltration | 
4 | CC/C=C\C[C@H](O)/C=C/C=C\C=C\C=C\[C@@H](O)[C@@H](O)C/C=C\CCC(=O)O [RvD1, 7S,8R,17S-trihydroxy-4Z,9E,11E,13Z,15E,19Z-docosahexaenoic acid] |  | protection from secondary organ injury (lung tissue damage, infiltrated leukocytes) [1]: protection
5 | CC/C=C\CC(O)/C=C/C=CC=CC=CC(O)C(O)CCCCCC(=O)O (stereo not shown) [RvD1n-3 DPA, 7,8,17-trihydroxy-9,11,13,15E,19Z-docosapentaenoic acid] | reduced neutrophil infiltration | 
6 | CC/C=C\C[C@H](O)[C@H](O)/C=C/C=C/C=C\C=C\[C@@H](O)C/C=C\CCC(=O)O [RvD2, 7S,16R,17S-trihydroxy-4Z,8E,10Z,12E,14E,19Z-docosahexaenoic acid] |  | reduction in neutrophil adhesion to TNF-α activated endothelial cells [2]: ~30%; reduction in neutrophil chemotaxis towards an IL-8 gradient (human neutrophils): ~42%; increase in macrophage phagocytosis (uptake) of zymosan [3]: ~50%
7 | CC/C=C\CC(O)C(O)/C=C/C=CC=CC=CC(O)CCCCCC(=O)O (stereo not shown) [RvD2n-3 DPA, 7,16,17-trihydroxy-8,10,12,14E, 19Z-docosapentaenoic acid] | reduced neutrophil infiltration | 
8 | CC/C=C\C[C@H](O)/C=C/C=C\C/C=C\C=C\[C@@H](O)CCCCCC(=O)O [RvD5n-3 DPA, 7,17-trihydroxy-8E,10,13,15E,19Z-docosapentaenoic acid] | reduced neutrophil infiltration | 
